One data set can be described thus: in vitro. The settings on record: human, CEM cells (lymphoblastic cell line).
The next data set deals with PBM cells. In words: Cytotoxicity assay, PBM cells. It is filed as cell-based, Human. The settings on record: for IC50: read-out: Cytotoxicity IC50 PBM, 5-day incubation.
A short description of data set [1]: Cytotoxicity assay, PBM cells. It is filed as cell-based, Human. The note with it: human.
Data set [2] in a line: Cytotoxicity assay, Vero cells. It counts as cell-based, African green monkey. The settings on record: African green monkey, Vero cells (kidney).
The next data set has as its system HIV-1. It counts as cell-based. The note with it: for EC50: read-out: Anti-HIV-1 activity in PBM cells EC50; for EC90: read-out: Anti-HIV-1 activity in PBM cells EC90.
Another data set relates to CEM cells. The settings on record: for IC50: read-out: Cytotoxicity IC50 CEM, 5-day incubation.
The next data set relates to Vero cells. In words: Cytotoxicity assay, Vero cells. It is filed as cell-based, African green monkey. The settings on record: read-out: Cytotoxicity IC50 Vero; Vero cells, 5-day incubation.
Another data set deals with PBM, CEM and Vero cells. In words: Cytotoxicity across all cell lines used. It counts as cell-based.

Regarding `O=C(CN1c2c(n[nH]c2-c2cccc(Cl)c2)-c2ccccc2S1(=O)=O)NN=Cc1cccc([N+](=O)[O-])c1` [Compound 5l, 2-[3-(3-Chlorophenyl)-5,5-dioxidobenzo[e]pyrazolo[4,3-c] [1,2]thiazin-4(2H)-yl]-N′-(3-nitrobenzylidene)acetohydrazide], the IC50 at 5 day was 47.3 µM in “in vitro”, > 100 µM in data set [1] and 27 µM in data set [2]. For the same compound, the “Toxicity in PBM cells (in words)” value with PBM cells was “not toxic”.
As for `O=C(CN1c2c(n[nH]c2-c2cccc(Cl)c2)-c2ccccc2S1(=O)=O)NN=Cc1cccc(Br)c1` [Compound 5d, N′-(3-Bromobenzylidene)-2-[3-(3-chlorophenyl)-5,5-dioxidobenzo[e]pyrazolo[4,3-c][1,2]thiazin-4(2H)-yl]acetohydrazide], the values for the IC50 at 5 day (in the data set “in vitro”; in data set [1]; in data set [2]) were 12.9 µM, 22.9 µM and > 100 µM, respectively.
In the case of `COc1cc(C=NNC(=O)CN2c3c(n[nH]c3-c3cccc(Cl)c3)-c3ccccc3S2(=O)=O)cc(OC)c1OC` [Compound 5j, 2-[3-(3-chlorophenyl)-5,5-dioxidobenzo[e]pyrazolo[4,3-c] [1,2]thiazin-4(2H)-yl]-N′-(3,4,5-trimethoxybenzylidene) acetohydrazide], the IC50 at 5 day in the data set “in vitro” amounted to 31.6 µM; in data set [1], 11 µM; in data set [2], 14.3 µM.
With `COC(=O)CN1C(C(=O)c2cccc(Cl)c2)=C(O)c2ccccc2S1(=O)=O` [Compound 3, Methyl 2-[3-(3-chlorobenzoyl)-4-hydroxy-1,1-dioxido-2H-benzo[e][1,2]thiazin-2-yl]acetate], the IC50 at 5 day stood at 22.4 µM in the data set “in vitro”, 57.3 µM in data set [1] and 40.6 µM in data set [2].
Take `COc1cccc(C=NNC(=O)CN2c3c(n[nH]c3-c3cccc(Cl)c3)-c3ccccc3S2(=O)=O)c1` [Compound 5h, 2-[3-(3-Chlorophenyl)-5,5-dioxidobenzo[e]pyrazolo[4,3-c] [1,2]thiazin-4(2H)-yl]-N′-(3-methoxybenzylidene)acetohydrazide]: the IC50 at 5 day was determined as 31.6 µM in the data set “in vitro”, 19 µM in data set [1] and 22.3 µM in data set [2].
The matching figures for `CN(C)c1ccc(C=NNC(=O)CN2c3c(n[nH]c3-c3cccc(Cl)c3)-c3ccccc3S2(=O)=O)cc1` [Compound 5o, 2-[3-(3-Chlorophenyl)-5,5-dioxidobenzo[e]pyrazolo[4,3-c] [1,2]thiazin-4(2H)-yl]-N′-[4-(dimethylamino)benzylidene] acetohydrazide]: 2.5 µM, 23.7 µM and 10.4 µM.
As to `COc1ccc(C=NNC(=O)CN2c3c(n[nH]c3-c3cccc(Cl)c3)-c3ccccc3S2(=O)=O)c(OC)c1OC` [Compound 5i, 2-[3-(3-Chlorophenyl)-5,5-dioxidobenzo[e]pyrazolo[4,3-c] [1,2]thiazin-4(2H)-yl]-N′-(2,3,4-trimethoxybenzylidene) acetohydrazide], the half-maximal inhibitory concentration (IC50) at 5 day in “in vitro” was determined as 31.6 µM; in data set [1] it was 21.8 µM; in data set [2], 29 µM. Besides, in the data set with HIV-1, the EC50 worked out at 4.2 µM.
On to `O=C(CN1C(=O)c2ccccc2S1(=O)=O)c1cccc(Cl)c1` [Compound 1, N-3′-Chlorophenacylsaccharine], for which the IC50 is > 100 µM with CEM cells, > 100 µM in the data set with PBM cells and 54.8 µM with Vero cells. For the same compound, the EC50 in the data set on HIV-1 was > 100 µM. Besides, the EC90 in the data set on HIV-1 is > 100 µM.
Consider `O=C(CN1c2c(n[nH]c2-c2cccc(Cl)c2)-c2ccccc2S1(=O)=O)NN=Cc1ccc(C(=O)O)cc1` [Compound 5n, 4-[(2-(2-(3-(3-Chlorophenyl)-5,5-dioxidobenzo[e]pyrazolo [4,3-c][1,2]thiazin-4(2H)-yl)acetyl)hydrazono)methyl]benzoic acid], for which the IC50 at 5 day in the data set “in vitro” came out at 13.4 µM; in data set [1] it was 17.2 µM; in data set [2] it was 18.2 µM.
`O=C(CN1c2c(n[nH]c2-c2cccc(Cl)c2)-c2ccccc2S1(=O)=O)NN=Cc1ccc(F)cc1` [Compound 5a, 2-[3-(3-Chlorophenyl)-5,5-dioxidobenzo[e]pyrazolo[4,3-c] [1,2]thiazin-4(2H)-yl]-N′-(4-fluorobenzylidene)acetohydrazide]: the IC50 at 5 day in the data set “in vitro” was 31.6 µM; in data set [1] it was 20 µM; in data set [2] it was 45.7 µM.
Regarding `O=C(C1=C(O)c2ccccc2S(=O)(=O)N1)c1cccc(Cl)c1` [Compound 2, (3-chlorophenyl)(4-hydroxy-1,1-dioxido-2H-benzo[e] [1,2]thiazin-3-yl)methanone], the IC50 at 5 day in the data set “in vitro” was 26.7 µM; in data set [1], > 100 µM; in data set [2], > 100 µM.
Turning to `O=C(CN1c2c(n[nH]c2-c2cccc(Cl)c2)-c2ccccc2S1(=O)=O)NN=Cc1cccc(Cl)c1` [Compound 5b, N′-(3-Chlorobenzylidene)-2-[3-(3-chlorophenyl)-5,5-dioxidobenzo[e]pyrazolo[4,3-c][1,2]thiazin-4(2H)-yl]acetohydrazide], the IC50 at 5 day in “in vitro” is 31.6 µM; in data set [1], 36.3 µM; in data set [2], 16.4 µM.
Turning to `O=C(CN1c2c(n[nH]c2-c2cccc(Cl)c2)-c2ccccc2S1(=O)=O)NN=Cc1ccc(Cl)cc1` [Compound 5c, N′-(4-Chlorobenzylidene)-2-[3-(3-chlorophenyl)-5,5-dioxidobenzo[e]pyrazolo[4,3-c][1,2]thiazin-4(2H)-yl]acetohydrazide], the IC50 at 5 day in “in vitro” is 2.5 µM; in data set [1] it was 12.8 µM; in data set [2], 19.2 µM. For the same compound, in the data set on HIV-1, the EC50 was determined as 4 µM. In the data set on PBM, CEM and Vero cells, the “Toxicity to all the cell lines used (in words)” value is reported as “highly toxic”.
Take `NNC(=O)CN1c2c(n[nH]c2-c2cccc(Cl)c2)-c2ccccc2S1(=O)=O` [Compound 4]: the IC50 with CEM cells was > 100 µM. Also, in the data set with HIV-1, the “Anti-HIV-1 activity (in words)” value is “inactive”, the EC50 is > 100 µM and the EC90 was > 100 µM. Besides, in the data set with PBM cells, the IC50 was > 100 µM. The “Toxicity to all the cell lines used (in words)” value in the data set on PBM, CEM and Vero cells is reported as “nontoxic”. Moreover, the IC50 in the data set on Vero cells is > 100 µM.
In the case of `O=C(CN1c2c(n[nH]c2-c2cccc(Cl)c2)-c2ccccc2S1(=O)=O)NN=Cc1ccccc1[N+](=O)[O-]` [Compound 5k, 2-[3-(3-Chlorophenyl)-5,5-dioxidobenzo[e]pyrazolo[4,3-c] [1,2]thiazin-4(2H)-yl]-N′-(2-nitrobenzylidene)acetohydrazide], the IC50 at 5 day (in the data set “in vitro”; in data set [1]; in data set [2]) was > 100 µM in each case. Further, the “Anti-HIV-1 activity (in words)” value with HIV-1 is reported as “no inhibition”. The “Toxicity to all the cell lines used (in words)” value with PBM, CEM and Vero cells is listed as “no toxicity”.
As to `O=C(CN1c2c(n[nH]c2-c2cccc(Cl)c2)-c2ccccc2S1(=O)=O)NN=Cc1ccc(Cl)cc1Cl` [Compound 5f, 2-[3-(3-Chlorophenyl)-5,5-dioxidobenzo[e]pyrazolo[4,3-c] [1,2]thiazin-4(2H)-yl]-N′-(2,4-dichlorobenzylidene)acetohydrazide], the IC50 at 5 day stood at 13.8 µM in “in vitro”, 80.7 µM in data set [1] and 84.8 µM in data set [2]. For the same compound, the “Toxicity to CEM cell line (in words)” value in the data set on CEM cells was “toxic to only CEM cell line”. In addition, the “Toxicity in PBM cells (in words)” value in the data set with PBM cells is recorded as “not toxic”.
For the compound `O=C(CN1c2c(n[nH]c2-c2cccc(Cl)c2)-c2ccccc2S1(=O)=O)NN=Cc1ccc([N+](=O)[O-])cc1` [Compound 5m, 2-[3-(3-Chlorophenyl)-5,5-dioxidobenzo[e]pyrazolo[4,3-c] [1,2]thiazin-4(2H)-yl]-N′-[4-nitrobenzylidene]acetohydrazide], the half-maximal inhibitory concentration (IC50) at 5 day in “in vitro” came out at 2.8 µM; in data set [1] it was 16.7 µM; in data set [2], 21.2 µM.
Take `O=C(CN1c2c(n[nH]c2-c2cccc(Cl)c2)-c2ccccc2S1(=O)=O)NN=Cc1ccc(Br)cc1` [Compound 5e, N′-(4-Bromobenzylidene)-2-(3-(3-chlorophenyl)-5,5-dioxidobenzo[e]pyrazolo[4,3-c][1,2]thiazin-4(2H)-yl)acetohydrazide]: the IC50 at 5 day in “in vitro” was determined as 5 µM; in data set [1], 66.7 µM; in data set [2], 46.5 µM. Also, in the data set with PBM cells, the “Toxicity in PBM cells (in words)” value is on record as “not toxic”.
Take `O=C(CN1c2c(n[nH]c2-c2cccc(Cl)c2)-c2ccccc2S1(=O)=O)NN=Cc1c(Cl)cccc1Cl` [Compound 5g, 2-[3-(3-Chlorophenyl)-5,5-dioxidobenzo[e]pyrazolo[4,3-c] [1,2]thiazin-4(2H)-yl]-N′-(2,6-dichlorobenzylidene)acetohydrazide]: the IC50 at 5 day in the data set “in vitro” stood at 12.5 µM; in data set [1], 52.5 µM; in data set [2], 60.5 µM. Besides, the “Toxicity to CEM cell line (in words)” value in the data set with CEM cells is recorded as “toxic to only CEM cell line”. In the data set on PBM cells, the “Toxicity in PBM cells (in words)” value is “not toxic”.

The values above are taken from paper PMC8312988 (Medicinal chemistry research : an international journal for …, 2015).
